Results from patent US4375475A, “Substituted pyranone inhibitors of cholesterol synthesis” (Merck & Co., Inc., priority 1981, dated 1983).
Counter-ions that a name gives are not always drawn. Like-named read-outs stand apart in the source and are kept apart here.

Tests used:
[1] = target: T1, 3-hydroxy-3-methylglutaryl-coenzyme A reductase (Rattus norvegicus, UniProt P51639); assay: method A: in vitro method of H. J. Knauss et al., inhibition of 50% of the enzymatic activity; type: biochemical; conditions: compounds tested as the sodium salts of their corresponding hydroxy acid forms
T1 construct: from tissue
T1 sequence (P51639 1-887): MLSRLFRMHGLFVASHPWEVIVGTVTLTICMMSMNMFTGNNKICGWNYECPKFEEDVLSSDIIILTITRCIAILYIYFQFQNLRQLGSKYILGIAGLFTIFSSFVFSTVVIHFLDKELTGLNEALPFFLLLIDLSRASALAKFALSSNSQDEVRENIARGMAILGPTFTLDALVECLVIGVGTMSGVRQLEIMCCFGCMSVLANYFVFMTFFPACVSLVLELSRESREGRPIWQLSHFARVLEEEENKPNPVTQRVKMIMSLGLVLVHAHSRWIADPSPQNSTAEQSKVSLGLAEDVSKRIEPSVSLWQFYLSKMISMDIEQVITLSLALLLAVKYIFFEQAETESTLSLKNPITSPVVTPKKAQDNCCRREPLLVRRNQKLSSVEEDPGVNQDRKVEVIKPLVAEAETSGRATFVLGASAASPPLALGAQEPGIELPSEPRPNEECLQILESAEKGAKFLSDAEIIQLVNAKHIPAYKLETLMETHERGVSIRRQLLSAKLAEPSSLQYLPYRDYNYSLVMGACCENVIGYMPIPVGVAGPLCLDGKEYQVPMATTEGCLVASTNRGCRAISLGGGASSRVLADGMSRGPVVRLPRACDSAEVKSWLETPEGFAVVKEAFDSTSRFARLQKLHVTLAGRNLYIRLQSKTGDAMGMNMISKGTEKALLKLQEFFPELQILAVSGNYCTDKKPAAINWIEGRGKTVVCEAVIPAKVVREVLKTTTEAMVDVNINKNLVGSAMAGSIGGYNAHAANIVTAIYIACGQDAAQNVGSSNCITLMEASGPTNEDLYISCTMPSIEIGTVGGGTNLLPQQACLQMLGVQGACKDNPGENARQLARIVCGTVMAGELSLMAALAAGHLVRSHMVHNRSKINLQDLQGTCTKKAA
Source text: The inhibitory activity of these compounds for the biosynthesis of cholesterol has been measured by two methods. The experimental method A was the in vitro method of H. J. Knauss, et al., J. Biol. Chem., 234, 2835 (1959) and the activity was expressed as the molar concentration IC50 (M) necessary for the inhibition of 50% of the enzymatic activity. The experimental method B was the method of A. A. Kandutsch, et al., J. Biol. Chem., 248, 8403 (1973) for measuring the quantity of ^14 C-cholesterol biosynthesis from acetic acid-^14 C in mouse L cells. The activity is expressed for inhibition of 50% of the biosynthesis of cholesterol.

[2] = target: T1, 3-hydroxy-3-methylglutaryl-coenzyme A reductase; conditions: method A; values of Belgian Pat. No. 867,421; read-out: IC50 as reported in the cited Belgian patent; cited from earlier work
mouse L cells = conditions: method B, values of Belgian Pat. No. 867,421, read-out: IC50 (inhibition of 50% of the biosynthesis of cholesterol) as reported in the cited Belgian patent; cited from earlier work

Row | Compound | IC50 [1] | IC50 [2] | IC50 (mouse L cells)
1 | O=C(O)C[C@H](O)C[C@H](O)/C=C/c1c(Cl)cc(Cl)cc1-c1ccc(F)cc1 (relative stereo) [Example 43, (+)-(E)-(3R*,5S*)-7-(3,5-dichloro-4'-fluoro[1,1'-biphenyl]-2-yl)-3,5-dihydroxy-6-heptenoic acid, ammonium salt] | ~0.013 µM |  | 
2 | Cc1cc(C)cc(-c2cc(C)cc(C)c2C=CC2CC(O)CC(=O)O2)c1 (stereo not drawn) [6-[2-(3,3',5,5'-tetramethyl-[1,1'-biphenyl]-2-yl)ethenyl]-3,4,5,6-tetrahydro-4-hydroxy-2H-pyran-2-one] | 0.015 µM |  | 
3 | Cc1cc(C)c(C=CC2CC(O)CC(=O)O2)c(-c2ccc(F)c(C)c2)c1 (stereo not drawn) [6-[2-(4'-fluoro-3,3',5-trimethyl[1,1'-biphenyl]-2-yl)ethenyl]-3,4,5,6-tetrahydro-4-hydroxy-2H-pyran-2-one] | 0.007 µM |  | 
4 | O=C1C[C@@H](O)C[C@H](CCc2c(Cl)cc(Cl)cc2OCc2ccccc2)O1 [Example 14, (+)-Trans-6-[2-(2,4-dichloro-6-phenylmethoxyphenyl)ethyl]-3,4,5,6-tetrahydro-4-hydroxy-2H-pyran-2-one] | 0.068 µM |  | 
5 | CC[C@H](C)C(=O)O[C@H]1CCC=C2C=C[C@H](C)[C@H](CC[C@@H]3C[C@@H](O)CC(=O)O3)[C@H]21 [compactin] |  | ~0.008 µM | ~0.008 µM
